# Laboratory results published in patent publication US10123978B2, “Patch for treating dermatophytosis” (MEIJI SEIKA PHARMA CO., LTD., priority 2012, dated 2018).
# Structures can show the parent of a compound that is named as a salt.
# Columns and labels:
# [1] = test system: Trichophyton mentagrophytes (T. mentagrophytes) ATCC18748; experiment: Antifungal activity test against dermatophytes (MIC); assay type: cell-based; settings: 80% growth inhibiting concentration, RPMI1640/MOPS, 28° C., 3 days, WST8; for MIC: Trichophyton mentagrophytes, 72 h
# Method: (§1) Measurement of the anti-trichophyton activity of the compound of the formula (I) comprised in the patch of the present invention was carried out by the following method. The compound to be evaluated was used by dissolving in dimethyl sulfoxide (DMSO). As a medium for the test, RPMI1640 medium containing 0.165M of 3-morpholinopropanesulfonic acid (MOPS) was used. As fungi to be tested, Trichophyton mentagrophytes (T. mentagrophytes) ATCC18748 or Trichophyton rubrum (T. rubrum) ATCC10218 was used. The testing fungal strain was apportioned to 100 μl with a concentration of 1×10^4 conidia/ml, mixed with a compound to be evaluated on a 96-well half area plate so that the DMSO concentration became 1%, and cultured at a cultivation temperature of 28° C. for 3 days (Trichophyton mentagrophytes) or 4 days (Trichophyton rubrum). Thereafter, 5 μl of Cell Counting Kit 8 (WST8) was added thereto, and absorbances at 450 nm and 595 nm were measured to use these as background values. Thereafter, these were cultivated at 28° C. for 5 hours (Trichophyton mentagrophytes) or overnight (Trichophyton rubrum) to cause a color, and absorbances at 450 nm and 595 nm were measured again. A growth inhibiting rate was calculated from the difference to the background values, and a 80% growth inhibiting concentration was made an MIC value (μg/ml).
# [2] = test system: Trichophyton rubrum (T. rubrum) ATCC10218; experiment: as above; assay type: cell-based; settings: 80% growth inhibiting concentration, RPMI1640/MOPS, 28° C., 4 days, WST8; for MIC: Trichophyton rubrum, 96 h
# Method: as §1
Compound,MIC (T. mentagrophytes) [1],MIC (T. rubrum) [2],MIC [1],MIC [2]
Cc1cc(C)n(-c2ccc(N)cc2O)n1 [compound 31],B (2 to 8 μg/ml),B (4-16 μg/ml),,
Cc1nn(-c2ccccc2O)c(C)c1C [compound 9],A (≤1 μg/ml),A (≤2 μg/ml),,
Cc1nn(-c2ccc(N)cc2O)c(C)c1C [compound 34],B (2 to 8 μg/ml),B (4-16 μg/ml),,
Cc1nn(-c2ccc(C(=O)O)cc2O)c(C)c1C [compound 40],E (Inhibited less than 50% with 32 μg/ml),D (>32-64 μg/ml),,
Cc1nn(-c2ccc(Br)cc2O)c(C)c1C [compound 56],A (≤1 μg/ml),A (≤2 μg/ml),,
CCc1ccc(-n2nc(C)cc2C)c(O)c1 [compound 52],A (≤1 μg/ml),A (≤2 μg/ml),,
Cc1nn(-c2ccc(Br)cc2O)c(C)c1Cl [compound 55],A (≤1 μg/ml),A (≤2 μg/ml),,
Cc1cc(C)n(-c2cc(Cl)c(C)cc2O)n1 [compound 61],C (16 to 32 μg/ml),C (16-32 μg/ml),,
CCOC(=O)c1c(C)nn(-c2ccccc2O)c1C [compound 22],C (16 to 32 μg/ml),D (>32-64 μg/ml),,
Cc1cc(C)n(-c2cccc(C)c2O)n1 [compound 51],E (Inhibited less than 50% with 32 μg/ml),D (>32-64 μg/ml),,
Cc1cc(C)n(-c2ccc(C(N)=O)cc2O)n1 [compound 39],C (16 to 32 μg/ml),C (16-32 μg/ml),,
COC(=O)CCc1c(C)nn(-c2ccccc2O)c1C [compound 23],C (16 to 32 μg/ml),D (>32-64 μg/ml),,
Cc1ccc(O)c(-n2nc(C)cc2C)c1 [compound 49],E (Inhibited less than 50% with 32 μg/ml),D (>32-64 μg/ml),,
Cc1cc(C)n(-c2ccc(CO)cc2O)n1 [compound 47],B (2 to 8 μg/ml),B (4-16 μg/ml),,
Cc1cc(C)n(-c2cccc(O)c2O)n1 [compound 15],C (16 to 32 μg/ml),C (16-32 μg/ml),,
Cc1cc(C)n(-c2c(N)cccc2O)n1 [compound 36],E (Inhibited less than 50% with 32 μg/ml),D (>32-64 μg/ml),,
CCc1c(C)nn(-c2ccccc2O)c1C [compound 17],A (≤1 μg/ml),A (≤2 μg/ml),,
CCc1cc(CC)n(-c2ccccc2O)n1 [compound 14],B (2 to 8 μg/ml),B (4-16 μg/ml),,
Cc1cc(C)n(-c2ccc(C(F)(F)F)cc2O)n1 [compound 50],B (2 to 8 μg/ml),B (4-16 μg/ml),,
Oc1ccccc1-n1nc(C(F)(F)F)cc1C(F)(F)F [compound 6],C (16 to 32 μg/ml),E (>64 μg/ml),,

Compound,MIC (T. mentagrophytes) [1],MIC (T. rubrum) [2],MIC [1],MIC [2]
Cc1cc(C)n(-c2ccc(Cl)cc2O)n1 [compound 26],A (≤1 μg/ml),A (≤2 μg/ml),,
Cc1cc(C)n(-c2c(C)cccc2O)n1 [compound 46],E (Inhibited less than 50% with 32 μg/ml),D (>32-64 μg/ml),,
Cc1cc(C)n(-c2c(O)cccc2O)n1 [compound 43],E (Inhibited less than 50% with 32 μg/ml),D (>32-64 μg/ml),,
CC(C)(C)c1cc(N)n(-c2ccccc2O)n1 [compound 10],D (Inhibited 50% or more and less than 80% with 32 μg/ml),E (>64 μg/ml),,
Cc1cc(C)n(-c2cc(Cl)ccc2O)n1 [compound 11],C (16 to 32 μg/ml),D (>32-64 μg/ml),,
Cc1ccnn1-c1ccccc1O [compound 8],C (16 to 32 μg/ml),E (>64 μg/ml),,
Cc1nn(-c2ccc(C(N)=O)cc2O)c(C)c1Cl [compound 42],C (16 to 32 μg/ml),D (>32-64 μg/ml),,
Cc1ccc(-n2nc(C)cc2C)c(O)c1 [compound 44],A (≤1 μg/ml),A (≤2 μg/ml),,
CC(=O)Oc1ccc(-n2nc(C)cc2C)c(O)c1 [compound 57],B (2 to 8 μg/ml),B (4-16 μg/ml),,
"CCC(C)(C)c1ccc(CC(C)CN2C[C@@H](C)O[C@@H](C)C2)cc1 (some centres unmarked) [Amorolfine hydrochloride, reference compound]",,,≤ 1 µg/mL,≤ 2 µg/mL
Cc1nn(-c2ccccc2O)c(C)c1Cl [compound 13],A (≤1 μg/ml),B (4-16 μg/ml),,
COC(=O)c1ccc(-n2nc(C)cc2C)c(O)c1 [compound 35],C (16 to 32 μg/ml),C (16-32 μg/ml),,
COc1ccc(-n2nc(C)cc2C)c(O)c1 [compound 45],A (≤1 μg/ml),A (≤2 μg/ml),,
CC(=O)Oc1ccc(-n2nc(C)c(C)c2C)c(O)c1 [compound 59],B (2 to 8 μg/ml),B (4-16 μg/ml),,
Cc1cc(C)n(-c2ccc(Br)cc2O)n1 [compound 54],A (≤1 μg/ml),A (≤2 μg/ml),,
Cc1cc(C)n(-c2ccc([N+](=O)[O-])cc2O)n1 [compound 28],B (2 to 8 μg/ml),C (16-32 μg/ml),,
"CN(C/C=C/C#CC(C)(C)C)Cc1cccc2ccccc12 [Terbinafine hydrochloride, reference compound]",,,≤ 1 µg/mL,≤ 2 µg/mL
CC(=O)Oc1ccc(-n2nc(C)c(Cl)c2C)c(O)c1 [compound 58],B (2 to 8 μg/ml),A (≤2 μg/ml),,
Cc1cc(C)n(-c2ccc(C(=O)O)cc2O)n1 [compound 37],B (2 to 8 μg/ml),B (4-16 μg/ml),,
Cc1ccn(-c2ccccc2O)n1 [compound 7],C (16 to 32 μg/ml),E (>64 μg/ml),,

Compound,MIC (T. mentagrophytes) [1],MIC (T. rubrum) [2],MIC [1],MIC [2]
Cc1cc(C(F)(F)F)nn1-c1ccccc1O [compound 5],C (16 to 32 μg/ml),D (>32-64 μg/ml),,
Cc1nn(-c2ccc(O)cc2O)c(C)c1Cl [compound 63],A (≤1 μg/ml),A (≤2 μg/ml),,
Cc1nn(-c2ccc(C(N)=O)cc2O)c(C)c1C [compound 41],D (Inhibited 50% or more and less than 80% with 32 μg/ml),D (>32-64 μg/ml),,
Cc1nn(-c2ccccc2O)c(C)c1F [compound 53],B (2 to 8 μg/ml),B (4-16 μg/ml),,
Cc1cc(C)n(-c2cccc(Cl)c2O)n1 [compound 12],C (16 to 32 μg/ml),E (>64 μg/ml),,
Cc1nn(-c2ccc(Cl)cc2O)c(C)c1C [compound 30],A (≤1 μg/ml),A (≤2 μg/ml),,
Cc1cc(C)n(-c2ccc(F)cc2O)n1 [compound 25],B (2 to 8 μg/ml),B (4-16 μg/ml),,
CNc1ccc(-n2nc(C)cc2C)c(O)c1 [compound 48],B (2 to 8 μg/ml),B (4-16 μg/ml),,
Cc1cc(C)n(-c2cc(O)ccc2O)n1 [compound 16],C (16 to 32 μg/ml),E (>64 μg/ml),,
Cc1nn(-c2cc(O)ccc2O)c(C)c1Cl [compound 19],C (16 to 32 μg/ml),C (16-32 μg/ml),,
Cc1cc(C)n(-c2ccc(C(=O)N(C)C)cc2O)n1 [compound 38],C (16 to 32 μg/ml),B (4-16 μg/ml),,
Cc1cc(C)n(-c2ccccc2O)n1 [compound 1],B (2 to 8 μg/ml),B (4-16 μg/ml),,
CCCCc1c(C)nn(-c2ccccc2O)c1C [compound 24],A (≤1 μg/ml),C (16-32 μg/ml),,
Cc1nn(-c2ccc([N+](=O)[O-])cc2O)c(C)c1C [compound 32],B (2 to 8 μg/ml),B (4-16 μg/ml),,
Cc1nn(-c2cc(F)ccc2O)c(C)c1C [compound 20],C (16 to 32 μg/ml),D (>32-64 μg/ml),,
Cc1nn(-c2ccc(F)cc2O)c(C)c1Cl [compound 21],A (≤1 μg/ml),B (4-16 μg/ml),,
Cc1cc(C)n(-c2ccc(O)cc2O)n1 [compound 33],B (2 to 8 μg/ml),A (≤2 μg/ml),,
Cc1nn(-c2ccc(F)cc2O)c(C)c1C [compound 18],B (2 to 8 μg/ml),B (4-16 μg/ml),,
